According to patent US7855228B2, “Antibiotics targeting MreB” (The Board of Trustees of the Leland Stamford Junior …, priority 2005, dated 2010):
Converted amounts (≈) assume the structure as drawn.

Key:
S. typhimurium NBRC13245 = test: Determination of minimum inhibitory concentration (MIC); assay type: cell-based, Salmonella typhimurium; details: Salmonella enterica, Example 2; methods as in Example 1; read-out: MIC S. typhimurium
Method: (§1) Determination of minimum inhibitory concentration (MIC). MICs were also determined on Mueller Hinton agar plates (0.2% beef extract, 1.75% acid digest of casein, 0.15% soluble starch, 1.5% agar, pH 7.3).
(§2) Determination of MIC Minimal inhibitory concentrations (MICs) were determined using a standard 2-fold serial dilution format on L agar plates. Ten microliters of stationary culture diluted in 0.85% NaCl to 10^6 cells/ml were spotted on per plate. […] MICs were also determined on Mueller Hinton agar plates (0.2% beef extract, 1.75% acid digest of casein, 0.15% soluble starch, 1.5% agar, pH 7.3).

[1] = system: S. aureus subsp. aureus NBRC15035; test: as above; assay type: cell-based, Staphylococcus aureus; details: Staphylococcus aureus, NBRC15035, Example 2; methods as in Example 1; read-out: MIC S. aureus
Method: as §1, §2

B. subtilis 168 = test: as above; assay type: cell-based, Bacillus subtilis; details: Bacillus subtilis, 168, Example 2; methods as in Example 1; read-out: MIC B. subtilis
Method: as §1, §2

E. coli MG1655 [2] = test: Microscopic observation of cell shape; assay type: cell-based; details: Example 2; methods as in Example 1
Method: Microscopic observation. E. coli K-12 strain MG1655 (F^− λ^−) was grown in Lennox broth containing 1% Polypepton, 0.5% yeast extract, 0.5% NaCl, and 0.1% glucose (pH 7.2). Cells spread on a slide glass were treated with methanol for 5 min and covered with poly-L-lysine. The fixed cells were observed by the differential interference contrast system through an Axioskop 2 microscope (Carl Zeiss Co., Ltd., Oberkochen, Germany). To observe the anucleate cells, cells were stained with a 4′,6-diamidino-2-phenylindole (DAPI) solution (5 μg/ml in saline) and then observed by the fluorescence phase-contrast combined method.
The effect of each compound on E. coli cell morphology was next examined.

P. putida NBRC14164 = test: Determination of minimum inhibitory concentration (MIC); assay type: cell-based, Pseudomonas putida; details: Pseudomonas putida, NBRC14164, Example 2; methods as in Example 1; read-out: MIC P. putida
Method: as §1, §2

E. coli MG1655 [3] = test: as above; assay type: cell-based; details: Escherichia coli, MG1655, Example 2; methods as in Example 1; read-out: MIC E. coli
Method: as §1, §2

| SMILES | MIC (S. typhimurium NBRC13245) [µg/mL] | MIC [1] [µg/mL] | MIC (B. subtilis 168) [µg/mL] | MIC (P. putida NBRC14164) [µg/mL] | MIC (E. coli MG1655 [3]) [µg/mL] | Shape (E. coli MG1655 [2]) |
| --- | --- | --- | --- | --- | --- | --- |
| N=C(N)SCc1c(Cl)cc(Cl)cc1Cl [2,4,6-Cl] | > 100 | > 100 | 100 (≈ 371 µM) | > 100 | 100 (≈ 371 µM) | Sphere |
| N=C(N)SCc1c(F)cccc1F [2,6-F] | 50 (≈ 247 µM) | > 100 | > 100 | > 100 | 50 (≈ 247 µM) | Sphere |
| N=C(N)SCc1cc(Cl)cc(Cl)c1 [3,5-Cl] | > 100 | > 100 | > 100 | > 100 | > 100 | Sphere |
| N=C(N)SCc1ccc(Cl)nc1 [4-Cl Pyr] | > 100 | > 100 | > 100 | > 100 | 100 (≈ 496 µM) | Sphere |
| N=C(N)SCc1ccccc1Br [Compound 2-Br] | 50 (≈ 204 µM) | > 100 | > 100 | > 100 | 50 (≈ 204 µM) | Sphere |
| N=C(N)SCc1ccccc1C(F)(F)F [Compound 2-CF3] | > 100 | > 100 | > 100 | > 100 | > 100 | Sphere |
| N=C(N)SCc1ccccc1Cl [Compound 2-Cl] | 25 (≈ 125 µM) | > 100 | > 100 | > 100 | 12.5 (≈ 62.3 µM) | Sphere |
| N=C(N)SCc1ccccc1F [Compound 2-F] | 25 (≈ 136 µM) | > 100 | > 100 | > 100 | 25 (≈ 136 µM) | Sphere |
| N=C(N)SCc1cccc(C(F)(F)F)c1 [Compound 3-CF3] | > 100 | > 100 | > 100 | > 100 | > 100 | Sphere |
| N=C(N)SCc1cccc(Cl)c1 [Compound 3-Cl] | > 100 | > 100 | 50 (≈ 249 µM) | > 100 | 50 (≈ 249 µM) | Sphere |
| N=C(N)SCc1cccc(F)c1 [Compound 3-F] | > 100 | > 100 | 50 (≈ 271 µM) | > 100 | 50 (≈ 271 µM) | Sphere |
| N=C(N)SCc1ccc(C(F)(F)F)cc1 [Compound 4-CF3, S-(4-Trifluoromethyl-benzyl)-isothiourea] | > 100 | > 100 | > 100 | > 100 | 50 (≈ 213 µM) | Sphere |
| Cc1ccc(CSC(=N)N)cc1 [Compound 4-CH3, S-(4-methyl-benzyl)-isothiourea] | 50 (≈ 277 µM) | > 100 | > 100 | > 100 | 25 (≈ 139 µM) | Sphere |
| CN(C)[C@@H]1C(O)=C(C(N)=O)C(=O)[C@@]2(O)C(O)=C3C(=O)c4c(O)cccc4[C@@](C)(O)C3CC12 (stereo partly drawn) [TC, reference compound] | – | – | – | – | – | Rod |

More lines, in order of falling MIC (S. typhimurium NBRC13245), values ahead:

| MIC (S. typhimurium NBRC13245) [µg/mL] | MIC [1] [µg/mL] | MIC (B. subtilis 168) [µg/mL] | MIC (P. putida NBRC14164) [µg/mL] | MIC (E. coli MG1655 [3]) [µg/mL] | SMILES | Shape (E. coli MG1655 [2]) |
| --- | --- | --- | --- | --- | --- | --- |
| 25 (≈ 106 µM) | 25 (≈ 106 µM) | 100 (≈ 425 µM) | > 100 | 25 (≈ 106 µM) | N=C(N)SCc1cccc(Cl)c1Cl [2,3-Cl] | Sphere |
| 25 (≈ 106 µM) | > 100 | > 100 | > 100 | 12.5 (≈ 53.2 µM) | N=C(N)SCc1cc(Cl)ccc1Cl [2,5-Cl] | Sphere |
| 25 (≈ 106 µM) | > 100 | > 100 | > 100 | 12.5 (≈ 53.2 µM) | N=C(N)SCc1c(Cl)cccc1Cl [2,6-Cl] | Sphere |
| 25 (≈ 124 µM) | 100 (≈ 494 µM) | 25 (≈ 124 µM) | > 100 | 12.5 (≈ 61.8 µM) | N=C(N)SCc1ccc(F)c(F)c1 [3,4-F] | Sphere |
| 12.5 (≈ 49.4 µM) | > 100 | 12.5 (≈ 49.4 µM) | > 100 | 0.78 (≈ 3.08 µM) | N=C(N)SCc1cc(F)c(Cl)cc1Cl [2,4-Cl 5-F, S-(2,4-Dichloro, and 5-fluoro-benzyl)-isothiourea] | Sphere |
| 6.25 (≈ 19.3 µM) | 12.5 (≈ 38.7 µM) | 3.13 (≈ 9.69 µM) | 50 (≈ 155 µM) | 6.25 (≈ 19.3 µM) | O=C(N[C@H](CO)[C@H](O)c1ccc([N+](=O)[O-])cc1)C(Cl)Cl [CP, reference compound] | Rod |
| 6.25 (≈ 25.5 µM) | > 100 | > 100 | > 100 | 3.13 (≈ 12.8 µM) | N=C(N)SCc1ccc(Br)cc1 [Compound 4-Br, S-(4-Bromo-benzyl)-isothiourea] | Sphere |
| 1.56 (≈ 6.63 µM) | > 100 | > 100 | > 100 | 1.56 (≈ 6.63 µM) | N=C(N)SCc1ccc(Cl)cc1Cl [2,4-Cl, S-(2,4-Dichloro-benzyl)-isothiourea] | Sphere |
| 1.56 (≈ 4.46 µM) | 0.195 (≈ 0.558 µM) | 0.0488 (≈ 0.14 µM) | > 100 | 3.13 (≈ 8.96 µM) | CC1(C)S[C@@H]2[C@H](NC(=O)C(N)c3ccccc3)C(=O)N2[C@H]1C(=O)O (stereo partly drawn) [ABPC, reference compound] | Fil |
| 0.0488 (≈ 0.124 µM) | 0.0488 (≈ 0.124 µM) | 0.0244 (≈ 0.0622 µM) | 0.391 (≈ 0.996 µM) | 0.0244 (≈ 0.0622 µM) | CC1CN(c2c(F)c(N)c3c(=O)c(C(=O)O)cn(C4CC4)c3c2F)CC(C)N1 (stereo not drawn) [SPFX, reference compound] | – |
